Where “and” joins values, the source holds several entries; their conditions need not be identical. Equal entries are not always repeated. Where two headings read alike, the source gives them in different places.
Experiments:
[1] = test system: LS 174T; assay: cell viability in human CRC cell line LS 174T; format: cell-based; conditions: for LS 174T Cell viability (%): 4 d
Description: The cells were cultured at 37 °C and 7% CO2 with RPMI (KAP^2D cells) or DMEM (other cell lines), supplemented with 10% FBS and penicillin–streptomycin. […] No commonly misidentified cell lines were used. Mycoplasma contamination was excluded by a PCR-based analysis.

[2] = test system: HT-29; assay: cell viability in human CRC cell line HT-29; format: cell-based; conditions: ED Fig. 9h, replicates; for viability at 0.0137 µM / viability at 0.0412 µM / viability at 0.1235 µM / viability at 0.3704 µM / viability at 1.1111 µM / viability at 3.3333 µM / viability at 10 µM: Homo sapiens; for viability at 0.0137 µM: HT-29, read-out: HT-29 Cell viability (%), 0.0137 µM; for viability at 0.0412 µM: HT-29, read-out: HT-29 Cell viability (%), 0.0412 µM; for viability at 0.1235 µM: HT-29, read-out: HT-29 Cell viability (%), 0.1235 µM; for viability at 0.3704 µM: HT-29, read-out: HT-29 Cell viability (%), 0.3704 µM; for viability at 1.1111 µM: HT-29, read-out: HT-29 Cell viability (%), 1.1111 µM; for viability at 3.3333 µM: HT-29, read-out: HT-29 Cell viability (%), 3.3333 µM; for viability at 10 µM: HT-29, read-out: HT-29 Cell viability (%), 10.0000 µM
Description: To generate KAP^2D cells, KAP organoids were isolated from Matrigel, fragmented by mechanical dissociation and plated without any extracellular matrix on common cell culture dishes. Phoenix-Eco packaging cells (CRL-3214), HCT-15 (CCL-225), HCT 116 (CCL-247), COLO 205 (CCL-222), LS 174T (CL-188), RKO (CRL-2577) and HT-29 (HTB-38) were obtained from the American Type Culture Collection. The cells were cultured at 37 °C and 7% CO2 with RPMI (KAP^2D cells) or DMEM (other cell lines), supplemented with 10% FBS and penicillin–streptomycin. KAP^2D cells were authenticated using PCR (Kras locus and Trp53 locus). Phoenix-Eco packaging cells and HCT-15, HCT 116, COLO 205, LS 174T, RKO and HT-29 cells were authenticated by the provider using short tandem repeat profiling. No commonly misidentified cell lines were used. Mycoplasma contamination was excluded by a PCR-based analysis.
For in vitro treatment studies, organoids were mechanically dissociated and digested using TrypLE supplemented with 100 µg ml^−1 DNaseI and 10.5 µM Y-27632 dihydrochloride (Invitrogen) at 37 °C. A total of 1,000–2,000 single cells were plated per well in white 96-well plates (Greiner) in culture medium containing 10% GFR Matrigel or Cultrex BME. The treatment with doxycycline (5 µg ml^−1), pharmacological inhibitors or corresponding volumes of DMSO was started 24 h after plating. Doxycycline was obtained from Sigma-Aldrich. […] Cell viability was measured by means of CellTiter-Glo 3D or CellTiter-Glo 2.0 reagent (Promega) according to the manufacturers’ instructions and the Infinite M Plex reader (Tecan, i-control version 3.9.1 software). Results were normalized to vehicle (DMSO) or to shNC. For cell-doubling assays, the cell number was quantified at the corresponding time points using Guava EasyCyte flow cytometer (Luminex, CytoSoft v5.2 software).

[3] = test system: KAP^2D cells; assay: EdU incorporation in KAP^2D cells; format: cell-based, mouse; conditions: replicates, experiment and repetition
Description: Immunofluorescence staining on cells and organoids was performed on glass coverslips or tissue culture chambers (Sarstedt). Organoids were plated in medium containing 10% Matrigel or Cultrex BME. The cultures were fixed with 4% paraformaldehyde and stained with specific antibodies and DAPI (Vector Labs). All used antibodies and dilutions are listed in the Nature Portfolio Reporting Summary. For analyzing DNA synthesis, the Molecular Probes Click-iT EdU Alexa Fluor 555 kit was used 24 h after EdU incorporation with DAPI counterstaining. SA-β-Gal staining of cells was performed in cell culture dishes (cells) or tissue culture chambers (organoids) after fixation with 0.5% glutaraldehyde as described above. Human cultures were incubated with X-Gal solution at pH 6.0 for ~4 h.

[4] = test system: KAP liver metastasis; assay: survival of wild-type mice with KAP liver metastasis; format: in vivo, mouse; conditions: single animals; 1 = event, 0 = censored; Fig. 6e
Description: Subcutaneous injection, splenic seeding or cecum injection of organoids was performed in 8–10-week-old C57BL/6 N/Crl, Rag2^−/− (B6.Cg-Rag2^tm1.1Cgn/J), or CB17 Scid beige (CB17.Cg-Prkdc^scidLyst^bg-J/Crl) mice, obtained from Charles River. The organoids were dissociated into single cells, washed with PBS and injected in a 1:1 mixture of PBS and Matrigel. For murine organoids, 1 × 10^5 cells were injected into the left and right flanks or the spleen capsule and 2 × 10^6 cells were injected into the cecum wall. For human organoids, 4 × 10^5 cells were injected into the flanks of CB17 Scid beige mice. For splenic seeding and cecum injection, mice were anaesthetized using ketamine (100 mg kg^−1, intraperitoneally) and xylazin (10 mg/kg, intraperitoneally) in NaCl and a small laparotomy below the thorax was performed.
No mice were excluded during treatment studies.

For `O=C1c2ccc(Nc3ccc(F)cc3F)cc2CCc2ccc(OC[C@H](O)CO)cc21` [SKL, skepinone-L, reference compound], the “LS 174T Cell viability (%)” value ([1]; 3.3333 µM) was 99.97% and 97.60% and 100.77% and 96.22% and 98.37%, the “LS 174T Cell viability (%)” value ([1]; 10.0000 µM) was 102.64% and 93.49% and 96.83% and 90.78% and 93.45% and the viability at 0.0137 µM ([1]; Homo sapiens, LS174T, 96 h, read-out: LS 174T Cell viability (%), 0.0137 µM, 4 d) was 100%. For the same molecule, the viability at 0.0412 µM ([1]; Homo sapiens, LS174T, 96 h, read-out: LS 174T Cell viability (%), 0.0412 µM, 4 d) was 94.4%, the viability at 0.1235 µM ([1]; Homo sapiens, LS174T, 96 h, read-out: LS 174T Cell viability (%), 0.1235 µM, 4 d) was 92.9% and the viability at 0.3704 µM ([1]; Homo sapiens, LS174T, 96 h, read-out: LS 174T Cell viability (%), 0.3704 µM, 4 d) was 89%. For the same molecule, the viability at 1.1111 µM ([1]; Homo sapiens, LS174T, 96 h, read-out: LS 174T Cell viability (%), 1.1111 µM, 4 d) was 102%, the viability at 3.3333 µM ([1]; Homo sapiens, LS174T, 96 h, read-out: LS 174T Cell viability (%), 3.3333 µM, 4 d) was 107% and the viability at 10 µM ([1]; Homo sapiens, LS174T, 96 h, read-out: LS 174T Cell viability (%), 10.0000 µM, 4 d) was 98.7%. The “HT-29 Cell viability (%)” value ([2]; 0.0137 µM, Repetition) was 103.68% and 103.86%, the “HT-29 Cell viability (%)” value ([2]; 0.0137 µM, first experiment) was 94.50% and 93.43% and the “HT-29 Cell viability (%)” value ([2]; 0.0412 µM, Repetition) was 99.67% and 99.85%. For the same molecule, the “HT-29 Cell viability (%)” value ([2]; 0.0412 µM, first experiment) was 92.23% and 89.57%, the “HT-29 Cell viability (%)” value ([2]; 0.1235 µM, Repetition) was 103.93% and 105.17% and the “HT-29 Cell viability (%)” value ([2]; 0.1235 µM, first experiment) was 89.62% and 88.59%. The “HT-29 Cell viability (%)” value ([2]; 0.3704 µM, Repetition) was 102.88% and 105.26%, the “HT-29 Cell viability (%)” value ([2]; 0.3704 µM, first experiment) was 92.54% and 90.50% and the “HT-29 Cell viability (%)” value ([2]; 1.1111 µM, Repetition) was 104.46% and 106.93%. For the same molecule, the “HT-29 Cell viability (%)” value ([2]; 1.1111 µM, first experiment) was 97.34% and 97.79%, the “HT-29 Cell viability (%)” value ([2]; 3.3333 µM, Repetition) was 100.17% and 95.98% and the “HT-29 Cell viability (%)” value ([2]; 3.3333 µM, first experiment) was 98.14% and 94.12%. The “HT-29 Cell viability (%)” value ([2]; 10.0000 µM, Repetition) was 26.97% and 25.38%, the “HT-29 Cell viability (%)” value ([2]; 10.0000 µM, first experiment) was 26.95% and 26.30% and the viability at 0.0137 µM ([2]; Repetition) was 95.8%. The viability at 0.0137 µM ([2]; first experiment) was 95.5%, the viability at 0.0412 µM ([2]; Repetition) was 92.3% and the viability at 0.0412 µM ([2]; first experiment) was 93.7%. It also gave a viability at 0.1235 µM ([2]; Repetition) of 91.3%, a viability at 0.1235 µM ([2]; first experiment) of 91.8% and a viability at 0.3704 µM ([2]; Repetition) of 97.9%. For the same molecule, the viability at 0.3704 µM ([2]; first experiment) was 92.5%, the viability at 1.1111 µM ([2]; Repetition) was 99.2% and the viability at 1.1111 µM ([2]; first experiment) was 99.6%. It also gave a viability at 3.3333 µM ([2]; Repetition) of 93.3%, a viability at 3.3333 µM ([2]; first experiment) of 95.6% and a viability at 10 µM ([2]; Repetition) of 28.2%. For the same molecule, the viability at 10 µM ([2]; first experiment) was 25.2%, the “EdU+ cells” value ([3]; Fig. 4j) was 82.79% and 86.90% and 76.55% and 79.03% and 85.67% and 83.92% and 75.07% and 81.04% and the “EdU+ cells” value ([3]; Fig. 5b) was 71.09% and 73.09% and 75.56% and 76.21% and 80.69% and 80.64% and 67.57% and 64.28%. For the same molecule, the Survival [4] was 15 d of treatment and 16 d of treatment and 18 d of treatment and 26 d of treatment and 28 d of treatment and 11 d of treatment.

Reference: article PMC11864979, “First-in-class ultralong-target-residence-time p38α inhibitors as a mitosis-targeted therapy for colorectal cancer” (Nature Cancer, 2025)
